In ChEMBL document CHEMBL5724914, “Linking interpersonal differences in gut microbiota composition and drug biotransformation activity” (2024):

Tests used:
Conditions in all cases: 2 µM
[1] = (§1) The drug is tested on Z-005 corresponding to metagenome with ENA study accession number: PRJEB37062 and ENA sample accession number: ERS12561805 for biotransformation under anaerobic condition. The drug concentrations were measured over 9 timepoints collected between 0 and 24 hours of incubation by liquid-chromatography-coupled mass spectrometry (LC–MS)
[2] = as §1, with “Z-010” for “Z-005”, “ERS12561810” for “ERS12561805”
[3] = (§2) The drug is tested on Z-002 corresponding to rabbit gut metagenome with ENA study accession number: PRJEB37062 and ENA sample accession number: ERS12561802 for biotransformation under anaerobic condition. The drug concentrations were measured over 9 timepoints collected between 0 and 24 hours of incubation by liquid-chromatography-coupled mass spectrometry (LC–MS)
[4] = as §2, with “Z-001” for “Z-002”, “mouse” for “rabbit”, “ERS12561801” for “ERS12561802”
[5] = as §2, with “Z-016” for “Z-002”, “mouse” for “rabbit”, “ERS12561815” for “ERS12561802”
[6] = as §1, with “Z-026” for “Z-005”, “ERS12561825” for “ERS12561805”
[7] = as §2, with “Z-022” for “Z-002”, “mouse” for “rabbit”, “ERS12561821” for “ERS12561802”
[8] = as §2, with “Z-009” for “Z-002”, “pig” for “rabbit”, “ERS12561809” for “ERS12561802”
[9] = as §2, with “Z-020” for “Z-002”, “ERS12561819” for “ERS12561802”
[10] = as §2, with “Z-011” for “Z-002”, “mouse” for “rabbit”, “ERS12561811” for “ERS12561802”
[11] = as §1, with “Z-008” for “Z-005”, “ERS12561808” for “ERS12561805”
[12] = as §2, with “Z-030” for “Z-002”, “mouse” for “rabbit”, “ERS12561829” for “ERS12561802”
[13] = as §2, with “Z-028” for “Z-002”, “mouse” for “rabbit”, “ERS12561827” for “ERS12561802”
[14] = as §1, with “Z-012” for “Z-005”, “ERS12561812” for “ERS12561805”
[15] = as §2, with “Z-018” for “Z-002”, “pig” for “rabbit”, “ERS12561817” for “ERS12561802”
[16] = as §1, with “Z-004” for “Z-005”, “ERS12561804” for “ERS12561805”
[17] = as §1, with “Z-023” for “Z-005”, “ERS12561822” for “ERS12561805”
[18] = as §2, with “Z-007” for “Z-002”, “rat” for “rabbit”, “ERS12561807” for “ERS12561802”
[19] = as §1, with “Z-021” for “Z-005”, “ERS12561820” for “ERS12561805”
[20] = as §2, with “Z-006” for “Z-002”, “mouse” for “rabbit”, “ERS12561806” for “ERS12561802”
[21] = as §2, with “Z-019” for “Z-002”, “rat” for “rabbit”, “ERS12561818” for “ERS12561802”
[22] = as §2, with “Z-024” for “Z-002”, “pig” for “rabbit”, “ERS12561823” for “ERS12561802”
[23] = as §2, with “Z-014” for “Z-002”, “rat” for “rabbit”, “ERS12561814” for “ERS12561802”
[24] = as §1, with “Z-027” for “Z-005”, “ERS12561826” for “ERS12561805”
[25] = as §2, with “Z-003” for “Z-002”, “pig” for “rabbit”, “ERS12561803” for “ERS12561802”
[26] = as §2, with “Z-013” for “Z-002”, “ERS12561813” for “ERS12561802”
[27] = as §2, with “Z-029” for “Z-002”, “rat” for “rabbit”, “ERS12561828” for “ERS12561802”
[28] = as §2, with “Z-017” for “Z-002”, “mouse” for “rabbit”, “ERS12561816” for “ERS12561802”
[29] = as §2, with “Z-025” for “Z-002”, “ERS12561824” for “ERS12561802”
Further: call rule not given here.

SMILES | Bacterial Biotransformation [1] | Bacterial Biotransformation [2] | Bacterial Biotransformation [3] | Bacterial Biotransformation [4] | Bacterial Biotransformation [5] | Bacterial Biotransformation [6] | Bacterial Biotransformation [7] | Bacterial Biotransformation [8] | Bacterial Biotransformation [9] | Bacterial Biotransformation [10] | Bacterial Biotransformation [11] | Bacterial Biotransformation [12] | Bacterial Biotransformation [13] | Bacterial Biotransformation [14] | Bacterial Biotransformation [15] | Bacterial Biotransformation [16] | Bacterial Biotransformation [17] | Bacterial Biotransformation [18] | Bacterial Biotransformation [19] | Bacterial Biotransformation [20] | other results
CN1C[C@H](C(=O)N[C@]2(C)O[C@@]3(O)[C@@H]4CCCN4C(=O)[C@H](Cc4ccccc4)N3C2=O)C[C@@H]2c3cccc4[nH]cc(c34)C[C@H]21.CS(=O)(=O)O [DIHYDROERGOTAMINE MESYLATE] | Compound NOT metabolized | Compound NOT metabolized | Compound metabolized | Compound NOT metabolized | Compound NOT metabolized | Compound metabolized | Compound metabolized | Compound NOT metabolized | Compound NOT metabolized | Compound NOT metabolized | Compound NOT metabolized | Compound NOT metabolized | Compound NOT metabolized | Compound NOT metabolized | Compound NOT metabolized | Compound NOT metabolized | Compound metabolized | Compound NOT metabolized | Compound NOT metabolized | Compound NOT metabolized | Bacterial Biotransformation [21]: Compound NOT metabolized; Bacterial Biotransformation [22]: Compound metabolized; Bacterial Biotransformation [23]: Compound NOT metabolized; Bacterial Biotransformation [24]: Compound NOT metabolized; Bacterial Biotransformation [25]: Compound NOT metabolized; Bacterial Biotransformation [26]: Compound NOT metabolized; Bacterial Biotransformation [27]: Compound NOT metabolized; Bacterial Biotransformation [28]: Compound NOT metabolized; Bacterial Biotransformation [29]: Compound metabolized
CC(=O)SCC(Cc1ccccc1)C(=O)NCC(=O)OCc1ccccc1 (stereo not drawn) [RACECADOTRIL] | Compound metabolized | Compound metabolized | Compound metabolized | Compound metabolized | Compound metabolized | Compound metabolized | Compound metabolized | Compound metabolized | Compound metabolized | Compound metabolized | Compound metabolized | Compound metabolized | Compound metabolized | Compound metabolized | Compound metabolized | Compound metabolized | Compound metabolized | Compound metabolized | Compound metabolized | Compound metabolized | Bacterial Biotransformation [21]: Compound metabolized; Bacterial Biotransformation [22]: Compound metabolized; Bacterial Biotransformation [23]: Compound metabolized; Bacterial Biotransformation [24]: Compound NOT metabolized; Bacterial Biotransformation [25]: Compound metabolized; Bacterial Biotransformation [26]: Compound metabolized; Bacterial Biotransformation [27]: Compound metabolized; Bacterial Biotransformation [28]: Compound metabolized; Bacterial Biotransformation [29]: Compound metabolized
